Laboratory results from publication doi:10.1101/2025.03.14.643303, “A genome-scale drug discovery pipeline uncovers new therapeutic targets and a unique p97 allosteric binding site in Schistosoma mansoni” (bioRxiv, 2025).
Entries after “also recorded” stand apart in the source; their conditions may differ. Where two headings read alike, the source gives them in different places.

Legend:
adult S. mansoni worms [1] = assay: Treatment of adult S. mansoni worms in culture with inhibitors (attachment to tissue culture substrate, morphology; single 10 μM and dose-response EC50); format: cell-based, Schistosoma mansoni; conditions: for effect on adult parasites: inhibitors of human targets; for EC50: read-out: S. mansoni EC50
Procedure: Adult S. mansoni (NMRI strain) (6–7 weeks post-infection) worms were harvested from infected female Swiss Webster mice by hepatic portal vein perfusion using 37°C DMEM (Mediatech, Manassas, VA), 8% Horse Serum, and heparin.
Roughly 5 adult worm pairs were placed in 3mL Basch medium in a 12-well culture vessel, and incubated at 37°C, 5% CO2 for the length of the experiment. Compound was administered at D0, D1, and D2, media and drug refreshed every 24 hr. Worms were then allowed to remain in culture until D5, where a final assessment of worm attachment to tissue culture substate was made by light microscopy. Observations on movement and morphology were also recorded. A negative control (0.1% DMSO) and positive control (PZQ; 10 μM in 0.1% DMSO) were included in each experiment, and each experiment was repeated in triplicate for validation. For compounds that caused complete detachment in replicate experiments, the treatment was expanded to three concentrations (10 μM, 5 μM, and 1 μM) following the same treatment schedule and controls as detailed above. […] Each titration experiment was performed in triplicate according to the treatment regimen described above, using DMSO and PZQ as appropriate controls. Morphologies and motility were assessed by light microscopy, and dose-response curves were calculated using the primary readout of parasite attachment to tissue culture substrate in GraphPad Prism. […]
[…] Values were calculated using Prism.

[2] = biological target: S. mansoni p97 (Smp_018240) (Schistosoma mansoni, UniProt G4M0P7); assay: biochemical; conditions: for Fold Selectivity: H. sapiens vs S. mansoni p97 IC50
Sequence of S. mansoni p97 (Smp_018240) (G4M0P7 entry or part of it): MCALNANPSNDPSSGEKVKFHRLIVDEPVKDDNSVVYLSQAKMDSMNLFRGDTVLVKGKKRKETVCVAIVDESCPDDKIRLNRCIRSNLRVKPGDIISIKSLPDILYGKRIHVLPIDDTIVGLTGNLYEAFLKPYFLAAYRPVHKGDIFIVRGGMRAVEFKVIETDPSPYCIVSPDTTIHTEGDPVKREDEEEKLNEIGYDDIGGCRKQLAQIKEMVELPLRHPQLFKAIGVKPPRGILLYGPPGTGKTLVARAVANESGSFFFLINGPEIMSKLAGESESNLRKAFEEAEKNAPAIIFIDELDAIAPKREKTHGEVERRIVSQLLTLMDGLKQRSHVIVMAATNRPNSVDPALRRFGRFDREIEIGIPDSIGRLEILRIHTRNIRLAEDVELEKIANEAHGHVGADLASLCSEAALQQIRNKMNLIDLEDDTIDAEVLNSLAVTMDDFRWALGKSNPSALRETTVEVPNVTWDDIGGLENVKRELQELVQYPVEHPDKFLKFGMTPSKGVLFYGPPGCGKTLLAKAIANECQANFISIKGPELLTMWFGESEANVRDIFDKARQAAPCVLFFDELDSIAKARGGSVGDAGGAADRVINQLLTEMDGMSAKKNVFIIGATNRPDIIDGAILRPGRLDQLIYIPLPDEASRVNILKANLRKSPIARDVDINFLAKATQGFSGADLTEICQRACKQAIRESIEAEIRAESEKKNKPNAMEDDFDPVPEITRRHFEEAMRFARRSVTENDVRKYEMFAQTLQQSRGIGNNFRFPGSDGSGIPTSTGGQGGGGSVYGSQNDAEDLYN
Procedure: E. coli BL21 (DE3) containing the desired plasmid were grown in LB medium containing […] kanamycin while shaking at 37 °C to an OD600 of 0.6–0.8. The temperature was reduced to 18°C and 0.8 mM isopropyl-beta-D-thiogalactopyranoside (IPTG) was added. The bacterial culture was harvested 16hr later by centrifugation. The resulting pellet was suspended in 60 mL lysis buffer/2L bacterial culture [20 mM Tris (pH 7.4), 300 mM NaCl, 5 mM MgCl2, 20 mM imidazole, 1% Triton X-100, 1 mg/mL lysozyme, 10% glycerol, 3 mM β-mercaptoethanol, 0.2 mM PMSF, and protease inhibitor tablet (Roche)]. […] The lysate was centrifuged at 40,000 × rpm for 35 min at 4°C. The resulting supernatant was incubated with Ni-NTA beads equilibrated to lysis buffer for 1 hr at 4°C before being loaded onto a gravity column. The bead bed was washed with wash buffer [20 mM Tris (pH 7.4), 500 mM NaCl, 5 mM MgCl2, 40 mM imidazole, 0.05% Triton X-100, 10% glycerol, 3 mM β-mercaptoethanol, 0.2 mM PMSF, 0.001 mg/mL Aprotinin, and 0.002 mg/mL Leupeptin], then eluted in the same buffer with 250 mM imidazole in wash buffer. Fractions containing p97 were concentrated using Pierce Protein Concentrators (100k MWCO) and loaded onto a gel-filtration column (Superdex 200PG) and eluted using SEC buffer [20 mM Tris (pH 7.4), 180 mM NaCl, 5 mM MgCl2, and 10% glycerol] at 0.5 mL/min flow rate on a BioRad NGC Chromatography System. Fractions corresponding to an apparent molecular weight of 500 – 600 kDa were collected and analyzed by 4–20% SDS/PAGE to evaluate purity. Concentration was determined using a BSA standard. Fractions containing purified protein were aliquoted, snap frozen in liquid nitrogen, and stored at −80 °C until use.
For manual ATP consumption assays, 1 μM p97 was incubated with 1% DMSO or inhibitor (1% DMSO final) in assay buffer [50 mM Tris (pH 7.5), 20 mM MgCl2, 1 mM EDTA, 0.5 mM tris(2-carboxyethyl)phosphine (TCEP)] for 5 minutes prior to the addition of 20 μM ATP in a 384-well plate for a total reaction volume of 10 μL, and a final concentration of 500nM enzyme and 10 μM ATP. The reaction was allowed to proceed for 50 minutes at room temperature before adding equivalent volume of Kinase-Glo Plus reagent (Promega), and a further incubation of 10 minutes in the dark.
IC50 values were calculated using GraphPad Prism.

H. sapiens p97 (P55072) = biological target: T1, H. sapiens p97 (P55072) (Homo sapiens, UniProt P55072); assay: p97 ATPase activity, ATP consumption assay (Kinase-Glo), IC50 / counter screen; format: biochemical
T1 construct: 6xHis (C); made in house; host or cells: E. coli BL21 (DE3)
T1 sequence (P55072 whole entry): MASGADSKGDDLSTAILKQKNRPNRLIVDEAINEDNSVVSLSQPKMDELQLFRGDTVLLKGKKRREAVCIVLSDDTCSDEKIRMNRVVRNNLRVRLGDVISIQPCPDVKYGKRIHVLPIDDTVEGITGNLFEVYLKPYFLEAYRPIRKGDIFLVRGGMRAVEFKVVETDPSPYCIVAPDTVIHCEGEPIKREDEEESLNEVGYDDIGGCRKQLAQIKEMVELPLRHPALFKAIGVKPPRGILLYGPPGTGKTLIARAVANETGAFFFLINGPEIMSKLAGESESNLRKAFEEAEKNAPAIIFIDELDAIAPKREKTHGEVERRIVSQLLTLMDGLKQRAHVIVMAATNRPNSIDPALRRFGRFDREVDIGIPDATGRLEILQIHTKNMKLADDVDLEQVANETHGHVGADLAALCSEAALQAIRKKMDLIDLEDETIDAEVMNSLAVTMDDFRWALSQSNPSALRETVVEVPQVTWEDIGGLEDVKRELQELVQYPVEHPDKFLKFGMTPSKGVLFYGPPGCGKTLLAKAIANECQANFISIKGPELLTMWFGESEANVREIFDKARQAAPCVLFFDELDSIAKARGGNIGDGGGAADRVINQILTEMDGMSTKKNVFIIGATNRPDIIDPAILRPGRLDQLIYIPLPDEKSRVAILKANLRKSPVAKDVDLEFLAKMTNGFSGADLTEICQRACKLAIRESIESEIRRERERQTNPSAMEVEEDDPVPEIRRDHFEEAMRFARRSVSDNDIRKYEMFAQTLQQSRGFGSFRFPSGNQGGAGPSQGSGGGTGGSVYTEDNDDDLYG

[3] = test system: K48 polyubiquitinated proteins; assay: Western blot of drug-treated worm lysate with K48-linkage specific polyubiquitin antibody; format: cell-based, Schistosoma mansoni; conditions: worm lysate after 48 hr of treatment
Procedure: For drug treatment studies, 10 male adult worms (single or paired with females) were supplemented with either 0.1% DMSO or inhibitor (0.1% DMSO final). […]. After 48 hr, male parasites were separated from females using 0.25% tricaine in Basch Media 169, flash frozen in liquid nitrogen, and stored at −80°C until further processing. Male worm samples were homogenized with a pestle in 50 μL lysis buffer containing 2X sample buffer [0.471 M Tris (pH 6.7 with phosphoric acid), 20% glycerol, 5% SDS), protease inhibitor cocktail (Roche, cOmplete Mini, EDTA-free Tablets) and 10 mM DTT. The lysates were then sonicated on high for 5 min (30 sec on, 30 sec off) using a Bioruptor UCD-200. Lysates were centrifuged for 5 min at 10,000 g to remove debris. Total protein was measured using the Detergent Compatible Bradford Assay (Pierce). 50 μg of protein samples denatured in SDS Sample buffer (95°C for 5 min) were separated on a Bio-Rad 4–20% TGX Stain-Free gel along with Precision Plus Protein Dual Color Standards (Bio-Rad) as a marker. Proteins were then transferred to a nitrocellulose membrane (Bio-Rad). The membrane was blocked in a 1:5 solution of Li-Cor Odyssey Blocking buffer in PBST for 1 hr before being immunoblotted overnight at 4°C with 1:500 K48-linkage Specific Polyubiquitin Antibody (Cell Signaling Technology, 4289S) and 0.01 μg/mL mouse anti-actin antibody (1:10,000) (Developmental Studies Hybridoma Bank, JLA20) diluted in a 1:5 solution of Li-Cor Odyssey Blocking buffer in PBST. The membrane was washed 3x in TBST and then incubated in 1:5 Li-Cor Odyssey Blocking buffer containing the secondary antibodies (1:10,000 Li-Cor, 925–68071, goat anti-rabbit IRDye 680 RD, and 1:20,000 Li-Cor, 925–32280, goat anti-mouse IgM IRDye 800CW) for 1 hr at RT. The blot was washed in TBST 3x before being imaged on a LiCor Odyssey Infrared Imager.

HepG2 cells = assay: HepG2 cytotoxicity assay (Cell Titer Glo 2.0); format: cell-based, human
Procedure: HepG2 cells (ATCC) were plated at 2500 cells/well in 50 μL/well, dispersing cells using a 25g needle to break up clumps prior to plating. Plates were incubated for 24hr at 37C, 5% CO2. Following 24hr, 50 μL media containing 0.6% DMSO was added to a set of wells on one plate. The plate and Cell Titer Glo 2.0 reagent were brought to RT. A T=0 read was taken by adding 40 μL reagent/well, rocking the plate at 100 rpm for 2 min, then reading luminescence ~10 min later. […] 50 μL 2x concentrated compound was added to wells containing cells in 50 μL 24 hr after plating. Concentrations were tested in triplicate at following values: 30, 10, 3.3, 1.1, 0.37, 0.12, and 0.04 μM. Plates were incubated for 72 hr at 37C, 5% CO2. Following equilibration to room temperature, 40 μL undiluted reagent was added to each well, the plate rocked at 100 rpm for 2 min and then read for luminescent signal ~10 min later.
Values are plotted in excel and the 50% point determined by interpolation. Values were revisualized in Prism.

adult S. mansoni worms [4] = test system: adult S. mansoni worms; design: method as in PMID 32973031; conditions: schistosomes in vitro; cited from earlier work
[5] = recombinant enzyme, Kinase-Glo, Fig. 3D, read-out: S. mansoni (IC50)
[6] = recombinant enzyme, Kinase-Glo, Fig. 3D

Q: For `CC(C)N1CCN(CCNC2CCN(c3cccc(-c4cc5cc(F)ccc5[nH]4)c3)CC2)CC1` [UPCDC-30245, reference compound], which “effect on adult parasites” value (adult S. mansoni worms [1]; 10 μM) is on record?
A: effective

Q: What about the “selectivity between schistosome and human p97” value [2] of the same compound?
A: selective in favor of the human enzyme; also recorded: decreased potency

Q: And the IC50 [2, 5]?
A: 4.1 µM

Q: And the IC50 (H. sapiens p97 (P55072); [6])?
A: 0.97 ± 0.067 µM

Q: And the “accumulation of K48 polyubiquitinated proteins by western blot” value (“accumulation” for short) [3]?
A: did not see significant increases in K48 abundance

Q: With `COc1cccc2c(NCc3ccccc3)nc(-n3c(N)nc4ccccc43)nc12` [ML240, reference compound] as the compound, how does the “effect on adult parasites” value (adult S. mansoni worms [1]; 10 μM) read?
A: killed parasites quickly

Q: And the “selectivity for the schistosome enzyme over its human counterpart” value [2]?
A: ~ 5 fold

Q: And the IC50 [2, 5]?
A: 0.066 ± 0.0097 µM

Q: And the IC50 (H. sapiens p97 (P55072); [6])?
A: 0.33 ± 0.061 µM

Q: And the “accumulation” value [3]?
A: did not observe the same accumulation

Q: With `O=C(C#Cc1ccncc1)Nc1ccc2oc(-c3ccccn3)nc2c1` [Compound 739, N-(2-(pyridin-2-yl)benzo[d]oxazol-5-yl)-3-(pyridin-4-yl)propiolamide] as the compound, how does the “time to detachment of adult worms in culture” value (adult S. mansoni worms [1]; 10 μM) read?
A: ≤ 24 h

Q: What about the EC50 (adult S. mansoni worms [1]; Schistosoma mansoni, adult parasites, fraction of worms attached, 72 hours of drug treatment, in culture until D5, 50 μM - 10 nM, Suppl. Fig. 9C) of the same compound?
A: 1.3 µM

Q: And the “effect on adult worms” value (adult S. mansoni worms [1]; benzoxazole propiolamide series, 10 μM, treated 72 hours, monitored until D5)?
A: death of the parasites

Q: What about the “Fold Selectivity” value ([2]; Suppl. Fig. 9C) of the same compound?
A: 2.1

Q: And the IC50 ([2]; schistosome p97 enzyme, read-out: IC50)?
A: 0.15 µM

Q: And the IC50 (H. sapiens p97 (P55072); Hs p97, 100 μM – 1 nM, Suppl. Fig. 9C)?
A: 0.32 ± 0.026 µM

Q: And the “accumulation” value [3]?
A: accumulation of K48 polyubiquitin moieties

Q: What about the GI50 (HepG2 cells; Homo sapiens, HepG2, 72 h) of the same compound?
A: 0.85 µM

Q: What about the IC50 (HepG2 cells; Homo sapiens, HepG2, 72 h) of the same compound?
A: 1.2 µM

Q: What about the GI50 (HepG2 cells; Homo sapiens, HepG2, read-out: HepG2 GI50) of the same compound?
A: 0.85 µM

Q: What about the IC50 (HepG2 cells; Homo sapiens, HepG2, read-out: HepG2 IC50) of the same compound?
A: 1.2 µM

Q: Which IC50 [2, 5] does the source give for `Cc1cc(OCc2nnc(SC3CCCC3)n2-c2cccnc2)ccc1-c1ccc(S(C)(=O)=O)cc1` [NMS-873] here?
A: 0.23 ± 0.075 µM

Q: And the “accumulation” value [3]?
A: accumulation of proteins targeted for proteasome-mediated degradation

Q: What about the “parasite death in vitro” value (adult S. mansoni worms [4]) of the same compound?
A: sub-micromolar

Q: Which EC50 (adult S. mansoni worms [1]; worms, Suppl. Fig. 11E) does the source give for `Cc1cc2c(C(N)=O)cccc2n1-c1nc2c(c(NCc3ccccc3)n1)COCC2` [CB-5083, reference compound] here?
A: 0.36 µM

Q: What about the “Fold Selectivity” value ([2]; Suppl. Fig. 11D) of the same compound?
A: 2.0

Q: And the “selectivity for the schistosome enzyme over its human counterpart” value ([2]; S. mansoni vs H. sapiens p97 IC50)?
A: ~ 2 fold

Q: And the “accumulation” value [3]?
A: accumulation of proteins targeted for proteasome-mediated degradation

Q: What about the GI50 (HepG2 cells; HepG2, 72 hr, 50% growth inhibition normalized to time = 0, Suppl. Fig. 11A, read-out: GI50) of the same compound?
A: 0.31 µM

Q: And the IC50 (HepG2 cells; HepG2, 72 hr, 50% growth inhibition relative to control, Suppl. Fig. 11A, read-out: IC50)?
A: 0.41 µM

Q: What about the GI50 (HepG2 cells; HepG2, Suppl. Fig. 11E, read-out: HepG2 GI50) of the same compound?
A: 0.31 µM

Q: What about the IC50 (HepG2 cells; HepG2, Suppl. Fig. 11E, read-out: HepG2 IC50) of the same compound?
A: 0.41 µM

Q: And the “parasite death in vitro” value (adult S. mansoni worms [4])?
A: sub-micromolar

Q: What does the source list for `c1ccc(CNc2nc(NCc3ccccc3)c3ccccc3n2)cc1` [DbeQ, reference compound]?
A: effect on adult parasites (adult S. mansoni worms [1]; 10 μM): activity on the worms; IC50 [2, 5]: 12 µM; IC50 (H. sapiens p97 (P55072); [6]): 0.91 ± 0.39 µM; accumulation of K48 polyubiquitinated proteins by western blot [3]: did not observe the same accumulation

Q: With `CC1(C)C(N(O)C(=O)Nc2ccc(Cl)cc2)N(c2ccc(Cl)cc2)C(=O)N1CC(=O)N/N=C/C=C/c1ccc([N+](=O)[O-])o1` (stereo not shown) [Eeyarestatin I, reference compound] as the compound, how does the “effect on adult parasites” value (adult S. mansoni worms [1]; 10 μM) read?
A: effective

Q: What about the “accumulation” value [3] of the same compound?
A: did not see significant increases in K48 abundance

Q: Which “parasite death in vitro” value (adult S. mansoni worms [4]) does the source give for `CC(C)C[C@H](NC(=O)[C@H](Cc1ccccc1)NC(=O)c1cnccn1)B(O)O` [bortezomib] here?
A: killed
